Measurements taken from patent publication US11155517B2, “4-substituted phenylamine derivatives and their use to protect crops by fighting undesired phytopathogenic micoorganisms” (PI INDUSTRIES LTD., priority 2016, dated 2021).

Legend:
Assay type in all cases: cell-based
Colletotrichum capsici = Colletotrichum capsici (anthracnose) in vitro test, radial growth on Potato Dextrose Agar; conditions: Colletotrichum truncatum, 168 h; 300 ppm; seven days, 25° C.; read-out: % control compared to the untreated check (radial growth)
Rhizoctonia solani = Rhizoctonia solani (rice sheath blight/potato black scurf) in vitro test, radial growth on Potato Dextrose Agar; conditions: 168 h, 300 ppm, seven days, 25° C., read-out: % control compared to the untreated check (radial growth)
Botrytis cinerea = Botrytis cinerea (gray mold) in vitro test, radial growth on Potato Dextrose Agar; conditions: 168 h, 300 ppm, seven days, 22° C., read-out: % (control) compared to the untreated check (radial growth)
Alternaria solani = Alternaria solani (early blight of tomato/potato) in vitro test, radial growth on Potato Dextrose Agar; conditions: 168 h, 300 ppm, seven days, 25° C., read-out: % control compared to the untreated check (radial growth)
Pyricularia oryzae = assay: microbe, parasite or virus in culture; conditions: 168 h, read-out: % control compared to the untreated check (radial growth)
Fusarium culmorum = Fusarium culmorum (foot rot of cereals) in vitro test, radial growth on Potato Dextrose Agar; conditions: Fusarium culmorum, 168 h, read-out: % control compared to the untreated check (radial growth)
Septoria lycopersici = Septoria lycopersici (leaf spot of tomato) in vitro test, radial growth on Potato Dextrose Agar; conditions: 168 h, seven days, 25° C., read-out: % control compared to the untreated check (radial growth)

Compound	inhibition of growth at 300 ppm (Colletotrichum capsici)	inhibition of growth at 300 ppm (Rhizoctonia solani)	inhibition of growth at 300 ppm (Botrytis cinerea)	inhibition of growth at 300 ppm (Alternaria solani)	inhibition of growth at 300 ppm (Pyricularia oryzae)	inhibition of growth at 300 ppm (Fusarium culmorum)	inhibition of growth at 300 ppm (Septoria lycopersici)
CCN(C)C=Nc1cc(C)c(Cc2cc(F)cc(OC)c2)cc1Cl [Compound 169, N′-(2-chloro-4-(3-fluoro-5-methoxybenzyl)-5-methylphenyl)-N-ethyl-N-methylformimidamide]	> 80%	> 80%	> 80%	> 75%	> 75%	75%	> 70%
CCN(C)C=Nc1cc(F)c(Cc2cccc(C)c2)cc1C [Compound 171, N-ethyl-N′-(5-fluoro-2-methyl-4-(3-methylbenzyl)phenyl)-N-methylformimidamide]	> 80%	> 80%	> 80%	> 75%	> 75%	75%	> 70%
CCN(C)C=Nc1cc(F)c(Cc2cccc(Cl)c2)cc1C [Compound 173, N′-(4-(3-chlorobenzyl)-5-fluoro-2-methylphenyl)-N-ethyl-N-methylformimidamide]	> 80%	> 80%	> 80%	> 75%	> 75%	75%	> 70%
CCN(C)C=Nc1cc(F)c(Cc2ccccc2F)cc1C [Compound 185, N-ethyl-N′-(5-fluoro-4-(2-fluorobenzyl)-2-methylphenyl)-N-methylformimidamide]	> 80%	> 80%	> 80%	> 75%	> 75%	75%	> 70%
CCN(C)C=Nc1cc(F)c(Cc2ccccc2C)cc1C [Compound 186, N-ethyl-N′-(5-fluoro-2-methyl-4-(2-methylbenzyl)phenyl)-N-methylformimidamide]	> 80%	> 80%	> 80%	> 75%	> 75%	75%	> 70%
CCN(C)C=Nc1cc(F)c(Cc2cccc(C(F)(F)F)c2)cc1C [Compound 196, N-ethyl-N′-(5-fluoro-2-methyl-4-(3-(trifluoromethyl)benzyl)phenyl)-N-methylformimidamide]	> 80%	> 80%	> 80%	> 75%	> 75%	75%	> 70%
CCN(C)C=Nc1cc(C)c(Cc2cccc(F)c2)cc1C1CC1 [Compound 197, N′-(2-cyclopropyl-4-(3-fluorobenzyl)-5-methylphenyl)-N-ethyl-N-methylformimidamide]	> 80%	> 80%	> 80%	> 75%	> 75%	75%	> 70%
CCN(C)C=Nc1cc(C)c(Cc2cccc(C)c2)cc1C1CC1 [Compound 198, N′-(2-cyclopropyl-5-methyl-4-(3-methylbenzyl)phenyl)-N-ethyl-N-methylformimidamide]	> 80%	> 80%	> 80%	> 75%	> 75%	75%	> 70%
CCN(C)C=Nc1cc(C)c(Cc2cccc(Cl)c2)cc1C1CC1 [Compound 199, N′-(4-(3-chlorobenzyl)-2-cyclopropyl-5-methylphenyl)-N-ethyl-N-methylformimidamide]	> 80%	> 80%	> 80%	> 75%	> 75%	75%	> 70%
CCN(C)C=Nc1cc(C)c(Cc2cc(C)cc(F)c2)cc1C [Compound 200, N-ethyl-N′-(4-(3-fluoro-5-methylbenzyl)-2,5-dimethylphenyl)-N-methylformimidamide]	> 80%	> 80%	> 80%	> 75%	> 75%	75%	> 70%
CCN(C)C=Nc1cc(C)c(Cc2ccc(C(F)(F)F)cc2F)cc1C [Compound 201, N-ethyl-N′-(4-(2-fluoro-4-(trifluoromethyl)benzyl)-2,5-dimethylphenyl)-N-methylformimidamide]	> 80%	> 80%	> 80%	> 75%	> 75%	75%	> 70%
CCN(C)C=Nc1cc(C)c(Cc2cccc(OC(F)(F)F)c2)cc1F [Compound 206, N-ethyl-N′-(2-fluoro-5-methyl-4-(3-(trifluoromethoxy)benzyl)phenyl)-N-methylformimidamide]	> 80%	> 80%	> 80%	> 75%	> 75%	75%	> 70%
CCN(C)C=Nc1cc(C)c(Cc2ccccc2OC(F)(F)F)cc1F [Compound 207, N-ethyl-N′-(2-fluoro-5-methyl-4-(2-(trifluoromethoxy)benzyl)phenyl)-N-methylformimidamide]	> 80%	> 80%	> 80%	> 75%	> 75%	75%	> 70%
CCN(C)C=Nc1cc(C)c(Cc2cccc(Cl)c2)cc1F [Compound 208, N′-(4-(3-chlorobenzyl)-2-fluoro-5-methylphenyl)-N-ethyl-N-methylformimidamide]	> 80%	> 80%	> 80%	> 75%	> 75%	75%	> 70%
CCN(C)C=Nc1cc(C)c(Cc2cccc(F)c2)cc1F [Compound 209, N-ethyl-N′-(2-fluoro-4-(3-fluorobenzyl)-5-methylphenyl)-N-methylformimidamide]	> 80%	> 80%	> 80%	> 75%	> 75%	75%	> 70%
CCN(C)C=Nc1cc(C)c(Cc2cccc(C)c2)cc1F [Compound 210, N-ethyl-N′-(2-fluoro-5-methyl-4-(3-methylbenzyl)phenyl)-N-methylformimidamide]	> 80%	> 80%	> 80%	> 75%	> 75%	75%	> 70%
CCN(C)C=Nc1cc(C)c(Cc2ccccc2C)cc1F [Compound 212, N-ethyl-N′-(2-fluoro-5-methyl-4-(2-methylbenzyl)phenyl)-N-methylformimidamide]	> 80%	> 80%	> 80%	> 75%	> 75%	75%	> 70%
CCN(C)C=Nc1cc(C)c(Cc2ccccc2Cl)cc1F [Compound 213, N′-(4-(2-chlorobenzyl)-2-fluoro-5-methylphenyl)-N-ethyl-N-methylformimidamide]	> 80%	> 80%	> 80%	> 75%	> 75%	75%	> 70%
CCN(C)C=Nc1cc(C)c(Cc2ccccc2F)cc1F [Compound 214, N-ethyl-N′-(2-fluoro-4-(2-fluorobenzyl)-5-methylphenyl)-N-methylformimidamide]	> 80%	> 80%	> 80%	> 75%	> 75%	75%	> 70%
CCN(C)C=Nc1cc(C)c(Cc2c(F)cccc2C(F)(F)F)cc1Cl [Compound 220, N′-(2-chloro-4-(2-fluoro-6-(trifluoromethyl)benzyl)-5-methylphenyl)-N-ethyl-N-methylformimidamide]	> 80%	> 80%	> 80%	> 75%	> 75%	75%	> 70%
CCN(C)C=Nc1cc(C)c(Cc2ccccc2F)cc1C1CC1 [Compound 221, N′-(2-cyclopropyl-4-(2-fluorobenzyl)-5-methylphenyl)-N-ethyl-N-methylformimidamide]	> 80%	> 80%	> 80%	> 75%	> 75%	75%	> 70%
